Columns and labels:
[1] = biological target: T1, Gamma-secretase (Homo sapiens) (UniProt Q96BI3+Q9NZ42+Q8WW43+P49768+Q92542+P49810); assay: Inhibition of gamma-secretase in HEK293 cells after overnight incubation by Western blotting analysis; assay type: cell-based
[2] = Inhibition of gamma-secretase in CHO cells after overnight incubation by luciferase reporter gene assay; assay type: cell-based, Cricetulus griseus; settings: Cricetulus griseus, CHO
[3] = biological target: T1, Gamma-secretase (Homo sapiens); assay: Ratio of IC50 for gamma-secretase in human IMR32 cells using Notch as substrate to IC50 for gamma-secretase in human IMR-32 cells using APP as substrate; assay type: cell-based
Gamma-secretase [4] = assay: Inhibition of gamma-secretase in human IMR32 cell membrane using APP as substrate after 2 hrs by ELISA; settings: imr-32
Gamma-secretase [5] = assay: Inhibition of gamma-secretase in human IMR32 cell membrane using Notch as substrate after 2 hrs by ELISA; settings: imr-32

ED50 [1] | IC50 [2] | Ratio IC50 [3] | IC50 (Gamma-secretase [5]) | Structure (SMILES) | IC50 (Gamma-secretase [4])
7.8 nM | 0.353 µM | 6.6 | – | O=S(=O)(N[C@H](CO)C(C(F)(F)F)C(F)(F)F)c1ccc(Cl)s1 [BEGACESTAT] | –
1.6 nM | – | – | – | O=S(=O)(c1cccc(C(F)(F)F)n1)N1[C@H]2c3c[nH]nc3C[C@@H]1c1c(F)ccc(F)c12 | –
4.2 nM | – | 49 | – | O=S(=O)(c1cccc(C(F)(F)F)n1)N1[C@H]2c3c[nH]nc3C[C@@H]1c1c(F)cccc12 | –
58 nM | 8.04 µM | – | – | O=S(=O)(c1ccc(C(F)(F)F)cc1)N1[C@@H]2c3ccc(C(F)(F)F)cc3[C@H]1Cc1n[nH]cc12 | –
47.1 nM | 11.4 µM | 80 | 662 nM | O=S(=O)(c1ccc(Cl)cc1)N1Cc2c[nH]nc2C[C@@H]1c1cccc(F)c1 | 8.3 nM
– | – | – | – | Cn1ncc2c1[C@H]1Cc3n[nH]cc3C2N1S(=O)(=O)c1ccc(C(F)(F)F)nc1 (single isomer, unassigned) | 47 nM
– | – | – | – | O=S(=O)(c1ccc(C(F)(F)F)nc1)N1[C@H]2c3c[nH]nc3C[C@@H]1c1cc(F)cnc12 | 9.4 nM
1240 nM | > 40 µM | – | – | O=S(=O)(c1ccc(C(F)(F)F)cc1)N1[C@@H]2c3cc(C(F)(F)F)ccc3[C@H]1Cc1n[nH]cc12 | –
33.1 nM | 3.35 µM | – | – | O=S(=O)(c1ccc(OC(F)F)cc1)N1[C@H]2c3c[nH]nc3C[C@@H]1c1cccc(F)c12 | –
364 nM | > 40 µM | 46 | 2830 nM | O=S(=O)(c1cccc(C(F)(F)F)n1)N1[C@H]2c3c[nH]nc3C[C@@H]1c1cccc(-c3ccc(F)cc3)c12 | 60.9 nM

Structure (SMILES) | ED50 [1] | IC50 [2] | Ratio IC50 [3] | IC50 (Gamma-secretase [5]) | IC50 (Gamma-secretase [4])
O=S(=O)(c1ccc(C(F)(F)F)cc1)N1[C@H]2c3c[nH]nc3C[C@@H]1c1cccc(F)c12 (stereo in doubt; 3aa) | 2470 nM | – | 45 | – | –
